Data from patent US11873298B2, “Compounds and uses thereof” (JANSSEN PHARMACEUTICA NV, priority 2017, dated 2024).

What was measured:
[1] = target: T1, SCD1 (Homo sapiens, UniProt O00767); experiment: Growth of yeast surviving solely on human SCD1; assay type: cell-based
T1 construct: host or cells: S. cerevisiae ole1Δ strain (W303 pdr1Δ pdr3Δ background), plasmid pRS316 with TDH3 promoter and CYC1 terminator
T1 sequence (O00767 1-359): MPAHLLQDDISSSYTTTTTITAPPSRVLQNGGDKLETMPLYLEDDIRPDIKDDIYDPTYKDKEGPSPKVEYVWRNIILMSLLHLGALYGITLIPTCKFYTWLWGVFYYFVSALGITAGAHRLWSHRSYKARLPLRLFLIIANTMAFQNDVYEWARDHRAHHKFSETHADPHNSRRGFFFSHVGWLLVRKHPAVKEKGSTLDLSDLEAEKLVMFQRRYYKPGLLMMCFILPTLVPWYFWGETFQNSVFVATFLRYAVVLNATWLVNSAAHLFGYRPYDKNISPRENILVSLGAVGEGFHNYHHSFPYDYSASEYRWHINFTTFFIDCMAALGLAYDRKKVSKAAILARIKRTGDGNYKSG
Protocol: (§1) FIG. 6 is a series of graphs showing that commercial Scd inhibitors target human SCD1/SCD5 in yeast. Yeast surviving solely on yeast OLE1, or human SCD1 or SCD5, were treated with four commercial Scd inhibitors at indicated concentrations. Data are expressed as a percent of the DMSO-treated condition.
(§2) FIG. 7 is a series of graphs showing that 1,2,4-oxadiazoles target human SCD1 and SCD5. Three “SCD” strains expressing yeast OLE1 or human SCD1 or SCD5 were treated with five representative 1,2,4-oxadiazoles and a cycloheximide toxicity control at concentrations indicated on the log10 x-axis. The y-axis indicates the percent of the DMSO-treated condition. […] Approximately one half of all (250) 1,2,4-oxadiazoles tested inhibited SCD1 or SCD5 in a manner that was reversed by oleic/palmitoleic acid treatment.

[2] = target: T2, SCD5 (Homo sapiens, UniProt Q86SK9); experiment: Growth of yeast surviving solely on human SCD5; assay type: cell-based
T2 construct: host or cells: S. cerevisiae ole1Δ strain (W303 pdr1Δ pdr3Δ background), plasmid pRS316 with TDH3 promoter and CYC1 terminator
T2 sequence (Q86SK9 1-330): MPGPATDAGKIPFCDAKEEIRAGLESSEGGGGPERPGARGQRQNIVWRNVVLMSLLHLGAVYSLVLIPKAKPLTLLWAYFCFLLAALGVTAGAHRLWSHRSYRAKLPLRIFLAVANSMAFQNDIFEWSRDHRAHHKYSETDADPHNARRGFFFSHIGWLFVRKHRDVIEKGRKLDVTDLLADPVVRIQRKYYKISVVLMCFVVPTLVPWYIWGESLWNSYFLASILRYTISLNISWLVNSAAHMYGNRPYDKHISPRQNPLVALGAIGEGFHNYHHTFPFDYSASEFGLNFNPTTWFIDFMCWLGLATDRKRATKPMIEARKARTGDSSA
Protocol: as §1, §2

[3] = target: T3, yeast OLE1 (Saccharomyces cerevisiae, UniProt P21147); experiment: Growth of yeast surviving solely on yeast OLE1; assay type: cell-based
T3 construct: expressed in transfected cells; host or cells: S. cerevisiae ole1Δ strain (W303 pdr1Δ pdr3Δ background), plasmid pRS316 with TDH3 promoter and CYC1 terminator
T3 sequence (P21147 1-510): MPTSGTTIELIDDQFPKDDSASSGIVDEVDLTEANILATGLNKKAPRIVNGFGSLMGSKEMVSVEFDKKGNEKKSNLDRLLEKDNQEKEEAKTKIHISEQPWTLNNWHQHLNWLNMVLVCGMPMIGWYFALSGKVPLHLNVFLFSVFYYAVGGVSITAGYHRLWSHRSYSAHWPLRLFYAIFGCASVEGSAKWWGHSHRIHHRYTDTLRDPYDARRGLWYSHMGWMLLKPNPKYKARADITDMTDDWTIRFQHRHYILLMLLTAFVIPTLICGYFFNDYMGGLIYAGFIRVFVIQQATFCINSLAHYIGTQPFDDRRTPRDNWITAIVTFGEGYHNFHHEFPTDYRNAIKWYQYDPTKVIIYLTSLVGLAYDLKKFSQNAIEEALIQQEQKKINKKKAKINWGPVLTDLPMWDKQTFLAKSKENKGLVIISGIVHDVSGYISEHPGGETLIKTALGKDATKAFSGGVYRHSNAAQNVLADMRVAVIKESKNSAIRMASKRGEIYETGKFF
Protocol: as §1, §2

[4] = system: U2OS cells transiently overexpressing alpha-synuclein; experiment: U2OS transient overexpression induced cytotoxicity assay (ATP content, CellTiter-Glow); assay type: cell-based, human; conditions: 72 hours post transfection
Protocol: U2OS (Sigma-Aldrich), a human bone osteosarcoma epithelial cell line, is regularly maintained in McCoy's 5A medium (ATCC) supplemented with 10% FBS (ThermoFisher) between passage 11-21 and sub -cultured twice a week for the assay.
On the day of experiment, cells are about 80% confluence and trypsinized using 0.25% trypsin-EDTA (ThermoFisher Inc.) for 5 minutes at 37 c. Based on a ratio of 2 ug DNA/2e5 cells, required cells are spun down at 800 rpm for 5 minutes at room temperature. Cells are then re-suspended in SE solution (Lonza Inc.) at a density of 2e4 cells/μl. Nucleofection is performed using 4D-Nucleofector™ System (Lonza Inc.) under program code CM130. Cells are allowed to recover in the cuvette at room temperature for 10-15 minutes before further handling. Pre-warmed medium is added and cells suspension is thoroughly but gently mixed before plating. Cells are seeded at 2e4 cells/100 µl/well into 96 well PLD-coated white plate (Corning) using customized Viaflow program (Integra Biosciences). Serial dilution of drugs is carried out in DMSO. Drug solution is prepared at 6× fold, 20 ul of which is added to cells 4 hours after transfection. The final DMSO concentration is 0.3%. Microclimate lid (Labcyte) is strongly recommended to reduce evaporation and variation. Seventy-two hours post transfection, cells are lysed using CellTiter-Glow (Promega) and ATP content is determined using a luminescence plate reader (Perkin Elmer).
% Maximum fold rescue at each concentration is calculated as follows: […]
FK506 (tacrolimus), a macrolide calcineurin inhibitor, is used as reference compound in the assay.
% Rescue (normalized by max fold rescue of FK506)=(% Fold^αSyn drug-100)*100/(% Max fold^αSyn FK506-100).

[5] = system: yeast strains expressing the human α-synuclein; conditions: reference compound, earlier work; cited from earlier work
[6] = target: T2, SCD5; experiment: Growth inhibition of humanized yeast strain expressing SCD5 as sole desaturase; assay type: cell-based; conditions: humanized yeast strain expressing SCD5
In short: (§3)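 Yeast ole1Δ strain (W303 pdr1Δ pdr3Δ background) carrying plasmid-borne Ole1, SCD1 or SCD5 as sole desaturase was grown in uracil-lacking media, pre-cultured in raffinose for 6 h, then seeded in galactose medium with compound in DMSO. Growth was read as OD600 after 30° C. incubation: 24 h for Ole1, 40 h for SCD1/SCD5.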

[7] = system: yeast strains expressing the human α-synuclein; experiment: Yeast α-synuclein toxicity rescue assay (OD600 growth); conditions: 40 h, read-out: α-Syn Emax
[8] = target: T1, SCD1; experiment: Growth inhibition of humanized yeast strain expressing SCD1 as sole desaturase; assay type: cell-based; conditions: humanized yeast strain expressing SCD1
In short: as §3

[9] = target: T4, Ole1 (Saccharomyces cerevisiae, UniProt P21147); experiment: Growth inhibition of yeast strain expressing Ole1 as sole desaturase; assay type: cell-based; conditions: yeast strain expressing Ole1 as sole desaturase
T4 construct: expressed in transfected cells; host or cells: S. cerevisiae ole1Δ strain (W303 pdr1Δ pdr3Δ background), plasmid pRS316 with TDH3 promoter and CYC1 terminator
T4 sequence (P21147 1-510): T3 sequence (P21147 1-510)
In short: as §3

[10] = system: yeast strains expressing the human ApoE4; experiment: Yeast ApoE4 toxicity rescue assay (OD600 growth); conditions: 24 h, read-out: ApoE4 Emax
Source text: The induced expression of α-synuclein and ApoE4 confers cytotoxicity, thus enabling the identification of compounds that can restore cell viability. This instantaneous/synchronous induction of α-synuclein and ApoE4 can be achieved due to the following expression control. In glucose-containing media, gene expression from the GAL1 promoter is ‘off’ and actively repressed by additional epigenetic factors. In raffinose, expression is ‘off’, but the promoter not actively repressed. Upon transition to galactose-containing media, the promoter is instantaneously turned ‘on’ to achieve robust and synchronous induction of α-synuclein or ApoE4 expression. This highly regulated induction provides a robust window for the determination of both efficacy (amplitude of protective effect) and potency (concentration of protective effect) of cytoprotective compounds.
Re-suspended compound stocks were subsequently arrayed into 384 well compound plates using automated pipetting. All other wells not receiving stock compound were filled with 10 μL of 100% DMSO using an automated plate filler (Multidrop Combi). An 11 point, 2-fold serial dilution was then performed using the robotic platform. Compound assay plates were covered with foil and stored at −20° C. until use.
Each strain was handled according to standard protocols and cultured in media composed of CSM (complete synthetic media), YNB (yeast nitrogenous base), and a 2% (w/v) carbon source (either glucose, raffinose, or galactose).
In a standard yeast assay, a single-use aliquot of cells was thawed on ice and diluted into CSM/glucose (5 mL). Cultures were grown for 8 hours at 30° C. This pre-growth enables the yeast to exit the thaw and begin to grow without expressing aSyn or ApoE4. After 8 hours, cell density (OD600) was determined and cultures diluted to an OD600 of 0.01 in CSM/raffinose for an overnight culture phase at 30° C. During this period, the active glucose repression of the GAL1 promoter was relieved; however, expression of the α-Syn/ApoE4 genes were not yet induced. After ˜16 hours of growth, cultures attain an OD600 of 0.4-0.8 and were ready to apply to assay plates containing compound.
Compound profiling assays were executed in clear-bottom 384 well plates. First, compound plates were thawed at room temperature for 45′, centrifuged at 1,000×g for 1 minute, and the foil removed. Clear 384 well assay plates were then filled with 15 μL of CSM/galactose. […] The pin tool was washed iteratively with both 50% DMSO and 100% ethanol between each assay plate. After delivering compound to each assay plate, the overnight CSM/raffinose aSyn or ApoE4 cultures were added at a 2X cell density (0.04 for aSyn and 0.08 for ApoE4) in CSM/galactose to achieve a final assay OD600 of 0.02 and 0.04 for aSyn and ApoE, respectively. The cultures (15 μL per well) were then dispensed to the compound -containing 384 well assay plates using an automated plate filler. Plates were incubated in a humidified 30° C. incubator for 40 or 24 hours for aSyn and ApoE4, respectively. The ODsoo of each assay plate was then read with a microplate reader (e.g., Perkin Elmer Envision).
The efficacy and potency of compounds were calculated according to the following. Raw data (OD600 values) were first background corrected to account for OD600 contributed by the plate and media itself. The efficacy (percent above DMSO, herein referred to as “Emax”) was calculated according to the equation: (Experimental well−DMSO control well)/(DMSO control well)*100. […] Normalized dose-response data was fit with a logistic regression curve using Spotfire (TIBCO), or similar curve-fitting software package. EC50 values were then reported along with EMax to provide both efficacy and potency measures for each analog and enable further compound design.

C[C@@H]1C[C@@H]([C@H](O)CC2CC(=O)NC(=O)C2)C(=O)[C@@H](C)C1 [Cyclohexamide, cycloheximide]
growth of SCD1-expressing yeast (percent of the DMSO-treated condition) [1]: inhibited growth of all three strains with the same potency | growth of SCD5-expressing yeast (percent of the DMSO-treated condition) [2]: inhibited growth of all three strains with the same potency | growth of the strain expressing yeast OLE1 (percent of the DMSO-treated condition) [3]: inhibited growth of all three strains with the same potency

Cc1nn(C)c2cc(-c3noc(C4CCN(C(=O)CNC(=O)c5ccccc5)CC4)n3)ccc12 [Example 40, N-(2-(4-(3-(1,3-dimethyl-1H-indazol-6-yl)-1,2,4-oxadiazol-5-yl)piperidin-1-yl)-2-oxoethyl)benzamide]
% Rescue (normalized by FK506 max rescue) ([4]; 0.01 μM): 107% | % Rescue (normalized by FK506 max rescue) ([4]; 0.1 μM): 137% | % Rescue (normalized by FK506 max rescue) ([4]; 0.3 μM): 105% | % Rescue (normalized by FK506 max rescue) ([4]; 1 μM): 77%

C=CC[C@@H]1/C=C(\C)C[C@H](C)C[C@H](OC)[C@H]2O[C@@](O)(C(=O)C(=O)N3CCCC[C@H]3C(=O)O[C@H](/C(C)=C/[C@@H]3CC[C@@H](O)[C@H](OC)C3)[C@H](C)[C@@H](O)CC1=O)[C@H](C)C[C@@H]2OC [FK506, tacrolimus]
rescue of αSyn toxicity in yeast models [5]: rescue αSyn toxicity

CCOc1ccc(-c2noc(C3CCN(C(=O)CNC(=O)c4ccccc4)CC3)n2)cc1OC [Example 155, N-(2-(4-(3-(4-ethoxy-3-methoxyphenyl)-1,2,4-oxadiazol-5-yl)piperidin-1-yl)-2-oxoethyl)benzamide]
% Rescue (normalized by FK506 max rescue) ([4]; 0.01 μM): −23% | % Rescue (normalized by FK506 max rescue) ([4]; 0.1 μM): 83% | % Rescue (normalized by FK506 max rescue) ([4]; 0.3 μM): 44% | % Rescue (normalized by FK506 max rescue) ([4]; 1 μM): 10%

Cc1ccc(N2CC(C(=O)N3CCC(c4nc(-c5ccccc5)no4)CC3)CC2=O)cc1C (centres unmarked) [compound 1]
IC50 [6]: > 45 µM | Emax [7]: 155% | IC50 [8]: > 45 µM | IC50 [9]: 40.3 µM | Emax [10]: 320%
